Patent publication US7608630B2, “Marasmius androsaceus L.es Fr extract, piperidone derivative, and their use for the preparation of hypertensives” (Hainan Yangpu New Special Pharmaceutical Co., Ltd., priority 2004, dated 2009)
Where “and” joins values, the source holds several entries; their conditions need not be identical. Equal values may be shown once.

System: blood pressure of cats
Test: Reduction of blood pressure of cat
Assay type: in vivo
Conditions: cats
Protocol: A spontaneously hypertensive rat (SHR) was anesthetized with 40 mg/ml pentobarbital, and fixed by its back on an experimental stand. The skin at its neck was cut open after removing hair, and thereafter the right common carotid artery was separated with its proximal end being clamped by a artery clamp and its axifugal end being ligated by a thread. A V-shape cut was made with scissors at the axifugal end, into which an arterial cannula filled with heparin physiological saline was inserted. The arterial cannula was connected with a blood pressure transducer, and then the blood pressure transducer was connected to a computer-controlled three-way physiological-pharmacological recorder. The right femoral vein of the rat was separated and intubated for the injection of a drug. When the blood pressure became stable (i.e., the blood pressure contraction curve became straight), the rat was administered by intravenous route.
Five cats of 2.5-3.2 kg were administered orally and intravenously respectively according to the method in Example 8, and then their systolic pressure and diastolic pressure were determined using normal cats non-administered as a control group.

[1] = 5 mg/kg iv, 180 min after administration
[2] = 5 mg/kg iv, 180 min after administration, 5 mg/kg
[3] = 5 mg/kg iv, before administration
[4] = 5 mg/kg iv, before administration, 5 mg/kg
[5] = 10 mg/kg o.s, 10 min after administration
[6] = 10 mg/kg o.s, 10 min after administration, 10 mg/kg
[7] = 10 mg/kg o.s, 20 min after administration
[8] = 10 mg/kg o.s, 20 min after administration, 10 mg/kg
[9] = 10 mg/kg o.s, 30 min after administration
[10] = 10 mg/kg o.s, 30 min after administration, 10 mg/kg
[11] = 10 mg/kg o.s, 40 min after administration
[12] = 10 mg/kg o.s, 40 min after administration, 10 mg/kg
[13] = 10 mg/kg o.s, 50 min after administration
[14] = 10 mg/kg o.s, 50 min after administration, 10 mg/kg
[15] = 10 mg/kg o.s, 60 min after administration
[16] = 10 mg/kg o.s, 60 min after administration, 10 mg/kg
[17] = 10 mg/kg o.s, 90 min after administration
[18] = 10 mg/kg o.s, 90 min after administration, 10 mg/kg
[19] = 10 mg/kg o.s, 120 min after administration
[20] = 10 mg/kg o.s, 120 min after administration, 10 mg/kg
[21] = 10 mg/kg o.s, 150 min after administration
[22] = 10 mg/kg o.s, 150 min after administration, 10 mg/kg
[23] = 10 mg/kg o.s, 180 min after administration
[24] = 10 mg/kg o.s, 180 min after administration, 10 mg/kg
[25] = 10 mg/kg o.s, before administration
[26] = 10 mg/kg o.s, before administration, 10 mg/kg

CC1(C)CNCC(C)(C)C1=O [Compound of formula II, 3,3,5,5-tetramethyl-4-piperidone]
Systolic pressure, Animal 1-4 individually (5 mg/kg iv, 150 min after administration, 5 mg/kg): 186 mmHg and 170 mmHg and 202 mmHg and 150 mmHg | Average Diastolic pressure [1]: 133.75 mmHg | Average Systolic pressure [1]: 185 mmHg | Diastolic pressure, Animal 1-4 individually [2]: 123 mmHg and 148 mmHg and 156 mmHg and 108 mmHg | Systolic pressure, Animal 1-4 individually [2]: 187 mmHg and 176 mmHg and 212 mmHg and 165 mmHg | Average Diastolic pressure [3]: 146.25 mmHg | Average Systolic pressure [3]: 199.5 mmHg | Diastolic pressure, Animal 1-4 individually [4]: 169 mmHg and 138 mmHg and 163 mmHg and 115 mmHg | Systolic pressure, Animal 1-4 individually [4]: 226 mmHg and 183 mmHg and 211 mmHg and 178 mmHg | Average Diastolic pressure [5]: 119 mmHg | Average Systolic pressure [5]: 166.25 mmHg | Diastolic pressure, individual animals [6]: 143 mmHg and 145 mmHg and 112 mmHg and 76 mmHg | Systolic pressure, Animal 1-4 individually [6]: 190 mmHg and 180 mmHg and 159 mmHg and 136 mmHg | Average Diastolic pressure [7]: 107.25 mmHg | Average Systolic pressure [7]: 153 mmHg | Diastolic pressure, individual animals [8]: 130 mmHg and 136 mmHg and 91 mmHg and 72 mmHg | Systolic pressure, Animal 1-4 individually [8]: 170 mmHg and 181 mmHg and 138 mmHg and 123 mmHg | Average Diastolic pressure [9]: 96 mmHg | Average Systolic pressure [9]: 140.5 mmHg | Diastolic pressure, individual animals [10]: 110 mmHg and 108 mmHg and 91 mmHg and 75 mmHg | Systolic pressure, Animal 1-4 individually [10]: 154 mmHg and 140 mmHg and 138 mmHg and 130 mmHg | Average Diastolic pressure [11]: 95.25 mmHg | Average Systolic pressure [11]: 140.5 mmHg | Diastolic pressure, individual animals [12]: 107 mmHg and 100 mmHg and 95 mmHg and 79 mmHg | Systolic pressure, Animal 1-4 individually [12]: 146 mmHg and 133 mmHg and 143 mmHg and 140 mmHg | Average Diastolic pressure [13]: 101 mmHg | Average Systolic pressure [13]: 144.25 mmHg | Diastolic pressure, individual animals [14]: 110 mmHg and 116 mmHg and 95 mmHg and 83 mmHg | Systolic pressure, Animal 1-4 individually [14]: 149 mmHg and 140 mmHg and 144 mmHg (2×) | Average Diastolic pressure [15]: 103 mmHg | Average Systolic pressure [15]: 144 mmHg | Diastolic pressure, individual animals [16]: 110 mmHg and 117 mmHg and 102 mmHg and 83 mmHg | Systolic pressure, Animal 1-4 individually [16]: 149 mmHg and 153 mmHg and 130 mmHg and 144 mmHg | Average Diastolic pressure [17]: 103.75 mmHg | Average Systolic pressure [17]: 157 mmHg | Diastolic pressure, individual animals [18]: 102 mmHg and 120 mmHg and 97 mmHg and 96 mmHg | Systolic pressure, Animal 1-4 individually [18]: 154 mmHg (2×) and 180 mmHg and 140 mmHg | Average Diastolic pressure [19]: 108.25 mmHg | Average Systolic pressure [19]: 165 mmHg | Diastolic pressure, individual animals [20]: 93 mmHg and 154 mmHg and 96 mmHg and 90 mmHg | Systolic pressure, Animal 1-4 individually [20]: 146 mmHg and 195 mmHg and 163 mmHg and 156 mmHg | Average Diastolic pressure [21]: 111.75 mmHg | Average Systolic pressure [21]: 169.25 mmHg | Diastolic pressure, individual animals [22]: 93 mmHg and 161 mmHg and 109 mmHg and 84 mmHg | Systolic pressure, Animal 1-4 individually [22]: 146 mmHg and 206 mmHg and 168 mmHg and 157 mmHg | Average Diastolic pressure [23]: 117.5 mmHg | Average Systolic pressure [23]: 176.25 mmHg | Diastolic pressure, individual animals [24]: 107 mmHg and 164 mmHg and 112 mmHg and 87 mmHg | Systolic pressure, Animal 1-4 individually [24]: 158 mmHg and 213 mmHg and 170 mmHg and 164 mmHg | Average Systolic pressure (10 mg/kg o.s, 210 min after administration): 176.5 mmHg | Systolic pressure, Animal 1-4 individually (10 mg/kg o.s, 210 min after administration, 10 mg/kg): 159 mmHg and 213 mmHg and 170 mmHg and 164 mmHg | Average Systolic pressure (10 mg/kg o.s, 240 min after administration): 182.75 mmHg | Systolic pressure, Animal 1-4 individually (10 mg/kg o.s, 240 min after administration, 10 mg/kg): 178 mmHg and 213 mmHg and 176 mmHg and 164 mmHg | Average Diastolic pressure [25]: 147.5 mmHg | Average Systolic pressure [25]: 202.5 mmHg | Diastolic pressure, individual animals [26]: 143 mmHg and 165 mmHg and 145 mmHg and 137 mmHg | Systolic pressure, Animal 1-4 individually [26]: 191 mmHg and 215 mmHg and 196 mmHg and 208 mmHg
